We go through one cell line from the supplement of paper PMC10307832.

Common to all, as to assay: relative viability (nuclei count vs DMSO), 5 days (fraction); higher = more cells survive
Compound in the assay “Dabrafenib + OSI-027”: CC(C)(C)c1nc(-c2cccc(NS(=O)(=O)c3c(F)cccc3F)c2F)c(-c2ccnc(N)n2)s1 [Dabrafenib] + COc1cccc2cc(-c3nc([C@H]4CC[C@H](C(=O)O)CC4)n4ncnc(N)c34)[nH]c12 [OSI-027] (partner 0.5 µM)
Put shortly:
(§1)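 For relative viability, nuclei counts in treated wells were divided by those in vehicle wells. Lung cancer cell lines had been pin-tool dosed in 1536-well plates the day after seeding and cultured for 5 days, then fixed and stained in one step (final 0.05% Triton X-100, 1% formaldehyde, 1 ug/ml Hoechst) and imaged at 4×. Doses were one drug alone or a fixed anchor-drug dose plus five library-drug doses (not always all listed) in √10 steps, and values are duplicate-plate medians.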

Compound in the assay “VX-702 + Luminespib”: NC(=O)c1ccc(N(C(N)=O)c2c(F)cccc2F)nc1-c1ccc(F)cc1F [VX-702] + CCNC(=O)c1noc(-c2cc(C(C)C)c(O)cc2O)c1-c1ccc(CN2CCOCC2)cc1 [Luminespib] (partner 0.01 µM)
The procedure, abridged:
as §1

Compound in the assay “VX-702 + Lapatinib”: NC(=O)c1ccc(N(C(N)=O)c2c(F)cccc2F)nc1-c1ccc(F)cc1F [VX-702] + CS(=O)(=O)CCNCc1ccc(-c2ccc3ncnc(Nc4ccc(OCc5cccc(F)c5)c(Cl)c4)c3c2)o1 [Lapatinib] (partner 2 µM)
Put shortly:
as §1

Compound in the assay “VX-702 + AZD7762”: NC(=O)c1ccc(N(C(N)=O)c2c(F)cccc2F)nc1-c1ccc(F)cc1F [VX-702] + NC(=O)Nc1cc(-c2cccc(F)c2)sc1C(=O)N[C@H]1CCCNC1 [AZD7762] (partner 0.2 µM)
Put shortly: as §1

Turning to RERF-LC-KJ, the relative viability with Dabrafenib + OSI-027 (first compound 0.003 µM) stood at 0.565; in the assay with Dabrafenib + OSI-027 (first compound 0.009487 µM), 0.767; with Dabrafenib + OSI-027 (first compound 0.03 µM), 0.615; with Dabrafenib + OSI-027 (first compound 0.09487 µM) it was 0.68; in the assay with Dabrafenib + OSI-027 (first compound 0.3 µM), 0.731; with VX-702 + Luminespib (first compound 0.02 µM), 1.19. For the same cell line, the relative viability worked out at 1.2 with VX-702 + Luminespib (first compound 0.2 µM); 1.12 with VX-702 + Luminespib (first compound 0.6325 µM); 1.67 with VX-702 + Luminespib (first compound 2 µM); 0.891 with VX-702 + Lapatinib (first compound 0.02 µM); 0.801 with VX-702 + Lapatinib (first compound 0.2 µM); 0.888 with VX-702 + Lapatinib (first compound 0.6325 µM). Also, the relative viability was determined as 0.933 in the assay with VX-702 + Lapatinib (first compound 2 µM); 1.25 in the assay with VX-702 + AZD7762 (first compound 0.02 µM); 0.963 in the assay with VX-702 + AZD7762 (first compound 0.2 µM); 1.11 in the assay with VX-702 + AZD7762 (first compound 0.6325 µM); 1.09 with VX-702 + AZD7762 (first compound 2 µM).
